According to patent US20240082219A1, “METHODS FOR AMELIORATING AND PREVENTING AGE-RELATED MUSCLE DEGENERATION” (NANJING NUTRABUILDING BIO-TECH CO., LTD., priority 2021, published 2024):

Key:
[1] = Body weight and body composition (lean mass ratio) of old mice; assay type: in vivo, C57BL/6J mice; settings: old mice, 5, 15 or 45 mg/kg/day by gavage for 4 months, vs OM group
Protocol: The healthy and male C57BL/6J mice at 20 months of age (Old Mice, OM) and at 2 months of age (Young Mice, YM) were maintained under the barrier conditions in a temperature-controlled environment and fed a commercial mouse chow. They were divided into the following five groups: (1) non-supplement young mice group (YM, n=5); (2) non-supplement old mice group (OM, n=5); (3)L-Ergothioneine supplement group with low dosage (OM+5 mg/kg/day, n=5); (4) L-Ergothioneine supplement group with moderate dosage (OM+15 mg/kg/day, n=5); and(5) L-Ergothioneine supplement group with high dosage (OM+45 mg/kg/day, n=5). All mice were administered L-Ergothioneine for once daily by gavage in normal saline solution for 4 months. Mice were euthanized by CO2 inhalation followed by cervical dislocation at the end of study and skeletal muscles were excised for an immediate isolation of mitochondria. The bodyweight of C57BL/6 mice was recorded before treatment, once per week during the study, and at the end of the study. Body composition (lean mass ratio) of mice was analyzed using the (NM42-[…]-1 system, Suzhou Niumag) before treatment, once per month during the study, and at the end of the study. […] Statistical significance was determined using one-way ANOVA followed by Tukey's post hoc test (N=5, *P<0.05, **P<0.01, vs OM Group).

[2] = system: C57BL/6J mice at 20 months of age (Old Mice, OM); test: Tissue weights of soleus and gastrocnemius muscle, age-induced muscle loss; assay type: in vivo; settings: after 4 months administration by gavage, vs OM group
Protocol: The healthy and male C57BL/6J mice at 20 months of age (Old Mice, OM) and at 2 months of age (Young Mice, YM) were maintained under the barrier conditions in a temperature-controlled environment and fed a commercial mouse chow. They were divided into the following five groups: (1) non-supplement young mice group (YM, n=5); (2) non-supplement old mice group (OM, n=5); (3)L-Ergothioneine supplement group with low dosage (OM+5 mg/kg/day, n=5); (4) L-Ergothioneine supplement group with moderate dosage (OM+15 mg/kg/day, n=5); and(5) L-Ergothioneine supplement group with high dosage (OM+45 mg/kg/day, n=5). All mice were administered L-Ergothioneine for once daily by gavage in normal saline solution for 4 months. Mice were euthanized by CO2 inhalation followed by cervical dislocation at the end of study and skeletal muscles were excised for an immediate isolation of mitochondria. FIGS. 1A-1D show the test results related to effect of EGT treatment on age-induced muscle loss in mice monthly, particularly regarding body weight measurement (FIG. 1A), lean mass ratio (FIG. 1B), tissue weights of soleus muscle (FIG. 1C), and tissue weights of gastrocnemius muscle (FIG. 1D). Statistical significance was determined using one-way ANOVA followed by Tukey's post hoc test (N=5, *P<0.05, **P<0.01, vs OM Group).

[3] = system: C57BL/6J mice at 20 months of age (Old Mice, OM); test: Forelimb grip strength (grip strength meter); assay type: in vivo; settings: once daily by gavage for 4 months, vs OM group
Protocol: (§1) The healthy and male C57BL/6J mice at 20 months of age (Old Mice, OM) and at 2 months of age (Young Mice, YM) were maintained under the barrier conditions in a temperature-controlled environment and fed a commercial mouse chow. They were divided into the following five groups: (1) non-supplement young mice group (YM, n=5); (2) non-supplement old mice group (OM, n=5); (3)L-Ergothioneine supplement group with low dosage (OM+5 mg/kg/day, n=5); (4) L-Ergothioneine supplement group with moderate dosage (OM+15 mg/kg/day, n=5); and(5) L-Ergothioneine supplement group with high dosage (OM+45 mg/kg/day, n=5). All mice were administered L-Ergothioneine for once daily by gavage in normal saline solution for 4 months. Mice were euthanized by CO2 inhalation followed by cervical dislocation at the end of study and skeletal muscles were excised for an immediate isolation of mitochondria. Forelimb grip strength were analyzed using the rip strength meter (Bioseb, BIO-GS3) with mouse-specific wire grid (100×80 mm, angled 90° (vertical)), once per month during the study and at the end of the study. […] Statistical significance was determined using one-way ANOVA followed by Tukey's post hoc test (N=5, *P<0.05, **P<0.01, ***P<0.001 vs OM Group).

[4] = system: C57BL/6J mice at 20 months of age (Old Mice, OM); test: Motor coordination on rotating rod (Time to Fall); assay type: in vivo; settings: once daily by gavage for 4 months, vs OM group
Protocol: The healthy and male C57BL/6J mice at 20 months of age (Old Mice, OM) and at 2 months of age (Young Mice, YM) were maintained under the barrier conditions in a temperature-controlled environment and fed a commercial mouse chow. They were divided into the following five groups: (1) non-supplement young mice group (YM, n=5); (2) non-supplement old mice group (OM, n=5); (3)L-Ergothioneine supplement group with low dosage (OM+5 mg/kg/day, n=5); (4) L-Ergothioneine supplement group with moderate dosage (OM+15 mg/kg/day, n=5); and(5) L-Ergothioneine supplement group with high dosage (OM+45 mg/kg/day, n=5). All mice were administered L-Ergothioneine for once daily by gavage in normal saline solution for 4 months. Mice were euthanized by CO2 inhalation followed by cervical dislocation at the end of study and skeletal muscles were excised for an immediate isolation of mitochondria. Motor coordination deficits were performed by placing the mouse on a rotating rod (Beijing Zhishuduobao, DB093) and measuring how long it takes before mice fall off the rod (Time to Fall (s)). […] Statistical significance was determined using one-way ANOVA followed by Tukey's post hoc test (N=5, *P<0.05, **P<0.01, vs OM Group).

[5] = system: skeletal muscles mitochondria; test: ATP production, O2 consumption and P/O ratio in skeletal muscle mitochondria from treated mice; assay type: in vivo, C57BL/6J mice; settings: isolated skeletal muscle mitochondria of old mice treated for 4 months, vs OM group
Protocol: as §1, with “mitochondria. Extracting skeletal muscles mitochondria from mice to measure ATP production and O2 consumption. ATP production was measured using a luciferase/luciferin based system. O2 consumption was measured using optical spectra. The all data” for “mitochondria. Forelimb grip strength”, “analyzed to identify” for “analyzed using”, “the L-Ergothioneine function for improving ATP production” for “the rip strength meter (Bioseb, BIO-GS3) with mouse-specific wire grid (100×80 mm, angled 90° (vertical)), once per month during the study”, “and O2 consumption.” for “and at the end of the study.”

For `C[N+](C)(C)[C@@H](Cc1c[nH]c(=S)[nH]1)C(=O)[O-]` [L-Ergothioneine], the “body composition (lean mass ratio)” value [1] was “no significant difference”, the body weight [1] was “no significant difference” and the “weight of the gastrocnemius muscle” value [2] was “prevented this reduction”. The “weight of the soleus muscle” value [2] was “prevented this reduction”, the forelimb grip strength [3] was “ameliorating and preventing the loss of muscle grip strength” and the “time on rotating rod (Time to Fall)” value [4] was “prolong time of maintain on a rotating rod”. The ATP synthesis [5] was “increase of ATP synthesis” and the “P/O ratio (ATP produced per O2 consumed)” value [5] was “increase of ATP synthesis and P/O ratio”.
